In brackets after ≈: the same amount, converted by molar mass. Where two headings read alike, the source gives them in different places.
What was measured:
[1] = Acute toxicity, i.v., up-and-down method; details: mouse, in vivo, iv
[2] = system: isolated hearts of rabbits; assay: Coronary vasodilation in isolated rabbit hearts (Langendorff method); details: Oryctolagus cuniculus, isolated rabbit heart, dosage required to increase coronary outflow by 50%, read-out: Coronary vasodilation ICD50
Protocol: (a) Coronary vasodilation According to Langendorff method (O. Langendorff; Pflugers arch. ges. phisiol., 61, 291-332 (1895)), the coronary vasodilation effects were tested using isolated hearts of rabbits.

Beagle dogs = assay: Coronary effects on dogs; type: in vivo, dog
Protocol: (c) Coronary effects on dogs Beagle dogs (13 to 16 kg. .male.) were subjected to thoracotomy under anesthesia with sodium pentobarbital, and a probe was attached to the heart left coronary anterior descending artery of each animal, whereupon the coronary blood flow (CF) was measured by an electromagnetic flowmeter. On the other hand, a probe was attached to the exposed right femoral artery, and the femoral artery blood flow (FAF) was measured by an electromagnetic flowmeter. A canule was inserted to the left femoral artery, and the systemic blood pressure (BP) was bloody measured by a transducer. The heart rate (HR) was measured by an electrocardiogram. The sample solution was intravenously injected to the right femoral vein. The coronary blood flow (CF), the femoral artery blood flow (FAF) and the heart rate (HR) were represented by a % increase upon the injection of each sample as compared with the respective control value upon the injection of a saline. […]

Row | SMILES | LD50 [1] [mg/kg] | EC50 ([2]; Table 1(a)) [µg/mL] | EC50 ([2]; Table 1(b)) [µg/mL] | further results
1 | CCOC(=O)C1=C(C)NC(COC(N)=O)=C(C(=O)OCC)C1c1cccc([N+](=O)[O-])c1 (stereo not drawn) [(1)] | 207 | 0.24 (≈ 0.554 µM) |  | 
2 | COC(=O)C1=C(C)NC(COC(N)=O)=C(C(=O)OC)C1c1cccc([N+](=O)[O-])c1 (stereo not drawn) [(3), 2-Aminocarbonyloxymethyl-6-methyl-4-(3-nitrophenyl)-3,5-dimethoxycarbonyl-1,4-dihydropyridine] | 167 | 0.36 (≈ 0.888 µM) |  | 
3 | CCOC(=O)C1=C(C)NC(COC(N)=O)=C(C(=O)OCC)C1c1ccccc1[N+](=O)[O-] (stereo not drawn) [(5), 2-Aminocarbonyloxymethyl-6-methyl-4-(2-nitrophenyl)-3,5-diethoxycarbonyl-1,4-dihydropyridine] | 104 | 0.48 (≈ 1.11 µM) |  | 
4 | CCOC(=O)C1=C(C)NC(COC(=O)NC)=C(C(=O)OCC)C1c1ccccc1[N+](=O)[O-] (stereo not drawn) [(6), 2-N--Methylaminocarbonyloxymethyl-6-methyl-4-(2-nitrophenyl)-3,5-diethoxycarbonyl-1,4-dihydropyridine] | 30 | 0.45 (≈ 1.01 µM) |  | 
5 | CCOC(=O)C1=C(COC(N)=O)NC(C)=C(C(=O)OC(C)C)C1c1cccc([N+](=O)[O-])c1 (stereo not drawn) [(7), 2-Aminocarbonyloxymethyl-6-methyl-4-(3-nitrophenyl)-3-ethoxycarbonyl-5-isopropoxycarbonyl-1,4-dihydropyridine] | 76 | 0.24 (≈ 0.536 µM) |  | 
6 | CCOC(=O)C1=C(COC(=O)NC)NC(C)=C(C(=O)OC(C)C)C1c1cccc([N+](=O)[O-])c1 (stereo not drawn) [(8), 2-N--Methylaminocarbonyloxymethyl-6-methyl-4-(3-nitrophenyl)-3-ethoxycarbonyl-5-isopropoxycarbonyl-1,4-dihydropyridine] | 37 | 0.23 (≈ 0.498 µM) |  | 
7 | CCCOCCOC(=O)C1=C(C)NC(COC(N)=O)=C(C(=O)OCC)C1c1cccc([N+](=O)[O-])c1 (stereo not drawn) [(9), 2-Aminocarbonyloxymethyl-6-methyl-4-(3-nitrophenyl)-3-ethoxycarbonyl-5-(β-propoxyethoxy)carbonyl-1,4-dihydropyridine] | 136 |  | 0.34 (≈ 0.692 µM) | 
8 | CCCOCCOC(=O)C1=C(C)NC(COC(N)=O)=C(C(=O)OCC)C1c1ccccc1[N+](=O)[O-] (stereo not drawn) [(10), 2-Aminocarbonyloxymethyl-6-methyl-4-(2-nitrophenyl)-3-ethoxycarbonyl-5-(β-propoxyethoxy)carbonyl-1,4-dihydropyridine] | 84 |  | 0.3 (≈ 0.61 µM) | 
9 | CCCOCCOC(=O)C1=C(COC(N)=O)NC(C)=C(C(=O)OCC)C1c1cccc([N+](=O)[O-])c1 (stereo not drawn) [(11), 2-Aminocarbonyloxymethyl-6-methyl-4-(3-nitrophenyl)-5-ethoxycarbonyl-3-(β-propoxyethoxy)carbonyl-1,4-dihydropyridine] | 123 |  | 0.25 (≈ 0.509 µM) | 
10 | CCCOCCOC(=O)C1=C(C)NC(COC(N)=O)=C(C(=O)OCCOCCC)C1c1cccc([N+](=O)[O-])c1 (stereo not drawn) [(12), 2-Aminocarbonyloxymethyl-6-methyl-4-(3-nitrophenyl)-3,5-bis[(β-propoxyethoxy)carbonyl]-1,4-dihydropyridine] | 123 |  | 0.15 (≈ 0.273 µM) | 
11 | CCCOCCOC(=O)C1=C(C)NC(COC(=O)NC)=C(C(=O)OCCOCCC)C1c1cccc([N+](=O)[O-])c1 (stereo not drawn) [(13), 2-N--Methylaminocarbonyloxymethyl-6-methyl-4-(3-nitrophenyl)-3,5-bis[(β-propoxyethoxy)carbonyl]-1,4-dihydropyridine] | 104 |  | 0.04 (≈ 0.071 µM) | 
12 | CCOC(=O)C1=C(C)NC(COC(=O)NC2CCCCC2)=C(C(=O)OCCOC)C1c1cccc([N+](=O)[O-])c1 (stereo not drawn) [(14), 2-N--Cyclohexylaminocarbonyloxymethyl-6-methyl-5-ethoxycarbonyl-3-(β-methoxyethoxy)carbonyl-1,4-dihydropyridine] | 88 |  | 0.35 (≈ 0.642 µM) | 
13 | COC(=O)C1=C(COC(N)=O)NC(C)=C(C(=O)OCCN(C)Cc2ccccc2)C1c1cccc([N+](=O)[O-])c1 (stereo not drawn) [(15), 2-Aminocarbonyloxymethyl-6-methyl-4-(3-nitrophenyl)-3-methoxycarbonyl-5-(β-N--methylbenzylaminoethoxy)carbonyl-1,4-dihydropyridine] | > 200 |  | 0.4 (≈ 0.743 µM) | 
14 | CNC(=O)OCC1=C(C(=O)OC)C(c2cccc([N+](=O)[O-])c2)C(C(=O)OCCN(C)Cc2ccccc2)=C(C)N1 (stereo not drawn) [(16), 2-N--Methylaminocarbonyloxymethyl-6-methyl-4-(3-nitrophenyl)-3-methoxycarbonyl-5-(β-N--methylbenzylaminoethoxy)carbonyl-1,4-dihydropyridine] | 146 |  | 0.25 (≈ 0.452 µM) | 
15 | COC(=O)C1=C(COC(N)=O)NC(C)=C(C(=O)OCCN2CCN(C)CC2)C1c1cccc([N+](=O)[O-])c1 (stereo not drawn) [(17), 2-Aminocarbonyloxymethyl-6-methyl-4-(3-nitrophenyl)-3-methoxycarbonyl-5-[β-(4-methyl-1-piperazinyl)ethoxycarbonyl]-1,4-dihydropyridine] | 68 |  | 2 (≈ 3.86 µM) | 
16 | COC(=O)C1=C(COC(N)=O)NC(C)=C(C(=O)OCCN2CCOCC2)C1c1cccc([N+](=O)[O-])c1 (stereo not drawn) [(18), 2-Aminocarbonyloxymethyl-6-methyl-4-(3-nitrophenyl)-3-methoxycarbonyl-5-(β-morpholinoethoxy)carbonyl-1,4-dihydropyridine] | > 200 |  | 1.5 (≈ 2.97 µM) | 
17 | CCCOCCOC(=O)C1=C(COC(N)=O)NC(C)=C(C(=O)OCCN(C)Cc2ccccc2)C1c1cccc([N+](=O)[O-])c1 (stereo not drawn) [(19), 2-Aminocarbonyloxymethyl-6-methyl-4-(3-nitrophenyl)-3-(β-propoxyethoxy)carbonyl-5-(β-N--methylbenzylaminoethoxy)carbonyl-1,4-dihydropyridine] | 168 |  | 0.18 (≈ 0.295 µM) | 
18 | COCCOC(=O)C1=C(C)NC(COC(N)=O)=C(C(=O)OCCOC)C1c1ccccc1Cl (stereo not drawn) [(20), 2-Aminocarbonyloxymethyl-6-methyl-4-(2-chlorophenyl)-3,5-bis[(β-methoxyethoxy)carbonyl]-1,4-dihydropyridine] | 184 |  | 0.36 (≈ 0.745 µM) | 
19 | CCOC(=O)C1=C(COC(=O)Nc2ccc(Cl)cc2)NC(C)=C(C(=O)OC(C)C)C1c1cccc([N+](=O)[O-])c1 (stereo not drawn) [(21), 2-(4-chlorophenyl)aminocarbonyloxymethyl-6-methyl-4-(3-nitrophenyl)-3-ethoxycarbonyl-5-isopropoxycarbonyl-1,4-dihydropyridine] | 83 |  | 0.28 (≈ 0.502 µM) | 
20 | CCOC(=O)C1=C(COC(=O)Nc2ccccc2)NC(C)=C(C(=O)OC(C)C)C1c1cccc([N+](=O)[O-])c1 (stereo not drawn) [(22), 2-N--Phenylaminocarbonyloxymethyl-6-methyl-4-(3-nitrophenyl)-3-ethoxycarbonyl-5-isopropoxycarbonyl-1,4-dihydropyridine] | 80 |  | 0.33 (≈ 0.63 µM) | 
21 | COC(=O)C1=C(C)NC(C)=C(C(=O)OC)C1c1ccccc1[N+](=O)[O-] [nifedipine, 2,6-Dimethyl-4-(2-nitrophenyl)-3,5-dimethoxycarbonyl-1,4-dihydropyridine] |  | 0.29 (≈ 0.837 µM) | 0.22 (≈ 0.635 µM) | BP (systemic blood pressure) % decrease (Beagle dogs; 1 μg/kg i.v.): 2%; CF (coronary blood flow) % increase (Beagle dogs; 1 μg/kg i.v.): 10%; FAF (femoral artery blood flow) % increase (Beagle dogs; 1 μg/kg i.v.): -3%; HR (heart rate) % increase (Beagle dogs; 1 μg/kg i.v.): 0.6%; BP (systemic blood pressure) % decrease (Beagle dogs; 3 μg/kg i.v.): 10%; CF (coronary blood flow) % increase (Beagle dogs; 3 μg/kg i.v.): 48%; FAF (femoral artery blood flow) % increase (Beagle dogs; 3 μg/kg i.v.): -4%; HR (heart rate) % increase (Beagle dogs; 3 μg/kg i.v.): 2%; BP (systemic blood pressure) % decrease (Beagle dogs; 10 μg/kg i.v.): 18%; CF (coronary blood flow) % increase (Beagle dogs; 10 μg/kg i.v.): 86%; FAF (femoral artery blood flow) % increase (Beagle dogs; 10 μg/kg i.v.): 10%; HR (heart rate) % increase (Beagle dogs; 10 μg/kg i.v.): 4%
